From patent US9907737B2, “Composition comprising ferulic acid ethyl ester and aryl alkanol” (L'AIR LIQUIDE, SOCIETE ANONYME POUR L'ETUDE ET …, priority 2013, dated 2018)
Marks after values point to notes of the source that are not given here.

How the values were obtained:
C. albicans ATCC: 10231 = experiment: Bacterial count reduction test (method 1), C. albicans; type: cell-based, Candida albicans
Experimental: (§1) Method 1: Bacterial Count Reduction Test
(§2) The aim of this bacterial count reduction test is to determine suitable preservatives and reaction times for samples injected in the laboratory.
(§3) Staphylococcus aureus, Escherichia coli or Pseudomonas aeruginosa, Candida albicans, Aspergillus brasiliensis
A 4 day old Candida albicans culture on SA-agar (II subculture) is washed with 5 ml physiological NaCl and adjusted according to a barium sulphate standard (cf. DVG Guidelines). The titer of the Candida albicans suspension is 10^8 CFU/ml.
(§4) The titres of the respectively produced test organism suspensions are determined by means of a dilution series in physiological NaCl and recorded.
(§5) The samples are displaced with different concentrations of suitable preservatives. For each test bacterium a dilution series is required. The samples are injected individually with the respective test organism suspension and stirred well:
(§6) 25 g samples=0.1 ml bacterial suspension
(§7) 50 g samples=0.2 ml bacterial suspension.
(§8) After the indicated reaction times the samples are firstly stirred homogenously with a sterile glass rod and then spread onto CSA or SA agar. The bacteria samples are spread onto CSA and incubated for 48 hours at 37° C. The mould and yeast samples are spread onto SA agar and incubated for 48 hours at 37° C. (Candida albicans) and at 25° C. (Aspergillus brasiliensis).

[1] = test system: Staphylococcus aureus, Escherichia coli or Pseudomonas aeruginosa, Candida albicans, Aspergillus brasiliensis; experiment: Bacterial count reduction test (method 1), summary in words over the test organisms; type: cell-based; conditions: Example 3, Table 4; o/w-Lotion; concentration of 2%
Experimental: as §1, §2, §3, §5, §8

S. aureus ATCC: 6538 = experiment: Bacterial count reduction test (method 1), S. aureus; type: cell-based, Staphylococcus aureus; conditions: o/w cream, initial bacterial count 1 × 10^9
Experimental: as §1, §2, §3
(§9) From a 24-hour CS-angular agar culture (I subculture) of Staphylococcus aureus/Escherichia coli 24-hour CSL-cultures (II subculture) are created. The incubation is carried out at 37° C. The titer of the bacterial suspension is about 10^9 CFU/ml.
as §4, §5, §6, §7, §8

E. coli ATCC: 11229 = experiment: Bacterial count reduction test (method 1), E. coli; type: cell-based, Escherichia coli; conditions: o/w cream, initial bacterial count 1.3 × 10^9
Experimental: as §1, §2, §3, §9, §4, §5, §6, §7, §8

[2] = test system: A. brasiliensis ATCC: 16404; experiment: Bacterial count reduction test (method 1), A. brasiliensis; type: cell-based, Aspergillus brasiliensis
Experimental: as §1, §2, §3
A 7 to 14 days old Aspergillus brasiliensis culture on SA agar (25° C.±1° C.) is washed with 5 ml physiological NaCl, filtered by a glass funnel with glass wool and filled with physiological NaCl to 100 ml. The titre of the Aspergillus brasiliensis suspension is about 10^7 CFU/ml.
as §4, §5, §6, §7, §8

[3] = o/w cream, initial bacterial count 4.1 × 10^8
[4] = o/w-Lotion, initial bacterial count 5.4 × 10^8
[5] = o/w cream, initial bacterial count 1.5 × 10^7
[6] = o/w-Lotion, initial bacterial count 7.7 × 10^7

COc1cc(/C=C/C(=O)O)ccc1O [0.1% ferulic acid, ferulic acid]
R (Surface covered About 10^6): Growth of C. albicans ATCC: 10231 after 24 hours (C. albicans ATCC: 10231; [3]) | Growth of C. albicans ATCC: 10231 after 72 hours (C. albicans ATCC: 10231; [3]) | Growth of C. albicans ATCC: 10231 after 24 hours (C. albicans ATCC: 10231; [4]) | Growth of C. albicans ATCC: 10231 after 72 hours (C. albicans ATCC: 10231; [4]) | Growth of S. aureus ATCC: 6538 after 24 hours (S. aureus ATCC: 6538; 24 h) | Growth of E. coli ATCC: 11229 after 72 hours (E. coli ATCC: 11229; 72 h) | Growth of E. coli ATCC: 11229 after 168 hours (E. coli ATCC: 11229; 168 h) | Growth of E. coli ATCC: 11229 after 336 hours (E. coli ATCC: 11229; 336 h)
++++ (Massive growth About 10^5): Growth of C. albicans ATCC: 10231 after 168 hours (C. albicans ATCC: 10231; [3]) | Growth of C. albicans ATCC: 10231 after 336 hours (C. albicans ATCC: 10231; [3]) | Growth of C. albicans ATCC: 10231 after 168 hours (C. albicans ATCC: 10231; [4]) | Growth of C. albicans ATCC: 10231 after 336 hours (C. albicans ATCC: 10231; [4]) | Growth of S. aureus ATCC: 6538 after 72 hours (S. aureus ATCC: 6538; 72 h) | Growth of S. aureus ATCC: 6538 after 168 hours (S. aureus ATCC: 6538; 168 h) | Growth of S. aureus ATCC: 6538 after 336 hours (S. aureus ATCC: 6538; 336 h) | Growth of E. coli ATCC: 11229 after 24 hours (E. coli ATCC: 11229; 24 h) | Growth of A. brasiliensis ATCC: 16404 after 24 hours [2, 5] | Growth of A. brasiliensis ATCC: 16404 after 72 hours [2, 5] | Growth of A. brasiliensis ATCC: 16404 after 168 hours [2, 5] | Growth of A. brasiliensis ATCC: 16404 after 336 hours [2, 5] | Growth of A. brasiliensis ATCC: 16404 after 24 hours [2, 6] | Growth of A. brasiliensis ATCC: 16404 after 72 hours [2, 6] | Growth of A. brasiliensis ATCC: 16404 after 168 hours [2, 6] | Growth of A. brasiliensis ATCC: 16404 after 336 hours [2, 6]
inherent effectiveness: Effectiveness in bacterial count reduction test, in words [1]
